Patent publication US9113629B2, “4-amino-6-(4-substituted-phenyl)-picolinates and 6-amino-2-(4-substituted-phenyl)-pyrimidine-4-carboxylates and their use as herbicides” (DOW AGROSCIENCES LLC, priority 2013, dated 2015)
Read-outs that look alike come from different tables or passages of the source.

Assays:
[1] = tested on: Key Grass and Sedge Weeds as well as Grass Crops; test: Post-emergent Test II herbicidal activity (Table 6); type: in vivo; conditions: post-emergence, 336 h; for pest or weed control at 70 g/ha: 70 g ai/ha; for pest or weed control at 140 g/ha: 140 g ai/ha
Summary of the method: (§1)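 Greenhouse-grown plants at first or second true leaf stage were sprayed post-emergence with compound in acetone/DMSO-based aqueous spray containing crop oil concentrate and surfactant, at 187 L/ha, highest rate plus ½× to 1/16× dilutions. After 14 d, injury was scored visually versus untreated plants, 0 (none) to 100% (complete kill).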

[2] = tested on: Key Broadleaf Weed and Crop Species; test: Post-emergent Test II herbicidal activity (Table 5); type: in vivo; conditions: post-emergence, 336 h, 14 days after application; for pest or weed control at 70 g/ha: application rate 70 g ai/ha; for pest or weed control at 140 g/ha: application rate 140 g ai/ha
Summary of the method: as §1

[3] = CYPES: yellow nutsedge (Cyperus esculentus), read-out: Visual Growth Reduction (%) 14 Days After Application, CYPES
[4] = DIGSA: crabgrass (Digitaria sanguinalis), read-out: Visual Growth Reduction (%) 14 Days After Application, DIGSA
[5] = ECHCG: barnyardgrass (Echinochloa crus-galli), read-out: Visual Growth Reduction (%) 14 Days After Application, ECHCG
[6] = ORYSA: rice (Oryza sativa), crop, read-out: Visual Growth Reduction (%) 14 Days After Application, ORYSA
[7] = SETFA: giant foxtail (Setaria faberi), read-out: Visual Growth Reduction (%) 14 Days After Application, SETFA
[8] = SORVU: grain sorghum (Sorghum vulgare), read-out: Visual Growth Reduction (%) 14 Days After Application, SORVU
[9] = TRZSS (wheat, Triticum aestivum), crop, read-out: Visual Growth Reduction (%) 14 Days After Application, TRZSS
[10] = ZEAMX: maize, corn (Zea mays), crop, read-out: Visual Growth Reduction (%) 14 Days After Application, ZEAMX
[11] = ABUTH: velvetleaf (Abutilon theophrasti), read-out: Visual Growth Reduction (%) 14 Days After Application, ABUTH
[12] = AMARE: redroot pigweed (Amaranthus retroflexus), read-out: Visual Growth Reduction (%) 14 Days After Application, AMARE
[13] = BRSNN: oilseed-rape, canola (Brassica napus), read-out: Visual Growth Reduction (%) 14 Days After Application, BRSNN
[14] = CHEAL: lambsquarters (Chenopodium album), read-out: Visual Growth Reduction (%) 14 Days After Application, CHEAL
[15] = EPHHL: wild poinsettia (Euphorbia heterophylla), read-out: Visual Growth Reduction (%) 14 Days After Application, EPHHL
[16] = HELAN: sunflower (Helianthus annuus), read-out: Visual Growth Reduction (%) 14 Days After Application, HELAN
[17] = VIOTR: wild pansy (Viola tricolor), read-out: Visual Growth Reduction (%) 14 Days After Application, VIOTR

Compound | pest or weed control at 70 g/ha [1, 3] [%] | pest or weed control at 140 g/ha [1, 3] [%] | pest or weed control at 70 g/ha [1, 4] [%] | pest or weed control at 140 g/ha [1, 4] [%] | pest or weed control at 70 g/ha [1, 5] [%] | pest or weed control at 140 g/ha [1, 5] [%] | pest or weed control at 70 g/ha [1, 6] [%] | pest or weed control at 140 g/ha [1, 6] [%] | pest or weed control at 70 g/ha [1, 7] [%] | pest or weed control at 140 g/ha [1, 7] [%] | pest or weed control at 70 g/ha [1, 8] [%] | pest or weed control at 140 g/ha [1, 8] [%] | pest or weed control at 70 g/ha [1, 9] [%] | pest or weed control at 140 g/ha [1, 9] [%] | pest or weed control at 70 g/ha [1, 10] [%] | pest or weed control at 140 g/ha [1, 10] [%] | pest or weed control at 70 g/ha [2, 11] [%] | pest or weed control at 140 g/ha [2, 11] [%] | pest or weed control at 70 g/ha [2, 12] [%] | pest or weed control at 140 g/ha [2, 12] [%] | other results
Cc1ccc(-c2nc(C(=O)O)c(Cl)c(N)c2F)c(F)c1F [Compound 210] | 0 to 29 | 0 to 29 | 0 to 29 | 0 to 29 | 60 to 74 | 75 to 84 | 0 to 29 | 30 to 44 | 75 to 84 | 85 to 94 | 0 to 29 | 0 to 29 | 0 to 29 | 0 to 29 | 0 to 29 | 45 to 59 | 85 to 94 | 95 to 100 | 95 to 100 | 95 to 100 | pest or weed control at 70 g/ha [2, 13]: 75 to 84%; pest or weed control at 140 g/ha [2, 13]: 75 to 84%; pest or weed control at 70 g/ha [2, 14]: 95 to 100%; pest or weed control at 140 g/ha [2, 14]: 95 to 100%; pest or weed control at 70 g/ha [2, 15]: 95 to 100%; pest or weed control at 140 g/ha [2, 15]: 95 to 100%; pest or weed control at 70 g/ha [2, 16]: 95 to 100%; pest or weed control at 140 g/ha [2, 16]: 95 to 100%; pest or weed control at 70 g/ha [2, 17]: 0 to 29%; pest or weed control at 140 g/ha [2, 17]: 0 to 29%; melting point: 159 °C (dec.)
COC(=O)c1nc(-c2ccc(C)c(F)c2F)c(F)c(N)c1Cl [Compound 211] | 45 to 59 | 60 to 74 | 0 to 29 | 0 to 29 | 45 to 59 | 85 to 94 | 0 to 29 | 0 to 29 | 45 to 59 | 60 to 74 | 0 to 29 | 30 to 44 | 0 to 29 | 0 to 29 | 30 to 44 | 45 to 59 | 95 to 100 | 95 to 100 | 95 to 100 | 95 to 100 | pest or weed control at 70 g/ha [2, 13]: 60 to 74%; pest or weed control at 140 g/ha [2, 13]: 85 to 94%; pest or weed control at 70 g/ha [2, 14]: 95 to 100%; pest or weed control at 140 g/ha [2, 14]: 95 to 100%; pest or weed control at 70 g/ha [2, 15]: 95 to 100%; pest or weed control at 140 g/ha [2, 15]: 95 to 100%; pest or weed control at 70 g/ha [2, 16]: 95 to 100%; pest or weed control at 140 g/ha [2, 16]: 95 to 100%; pest or weed control at 70 g/ha [2, 17]: 0 to 29%; pest or weed control at 140 g/ha [2, 17]: 0 to 29%; melting point: 167 to 168 °C
Cc1ccc(-c2nc(C(=O)O)c(Cl)c(N)c2F)cc1F [Compound 212] | 0 to 29 | 30 to 44 | 0 to 29 | 30 to 44 | 75 to 84 | 85 to 94 | 60 to 74 | 60 to 74 | 45 to 59 | 75 to 84 | 60 to 74 | 75 to 84 | 60 to 74 | 60 to 74 | 75 to 84 | 85 to 94 | 95 to 100 | 95 to 100 | 95 to 100 | 95 to 100 | pest or weed control at 70 g/ha [2, 13]: 95 to 100%; pest or weed control at 140 g/ha [2, 13]: 95 to 100%; pest or weed control at 70 g/ha [2, 14]: 95 to 100%; pest or weed control at 140 g/ha [2, 14]: 95 to 100%; pest or weed control at 70 g/ha [2, 15]: 95 to 100%; pest or weed control at 140 g/ha [2, 15]: 95 to 100%; pest or weed control at 70 g/ha [2, 16]: 95 to 100%; pest or weed control at 140 g/ha [2, 16]: 95 to 100%; pest or weed control at 70 g/ha [2, 17]: 0 to 29%; pest or weed control at 140 g/ha [2, 17]: 0 to 29%; melting point: 145 to 146 °C
COC(=O)c1nc(-c2ccc(Cl)c(F)c2)c(F)c(N)c1Cl [Compound 216] | 85 to 94 | 95 to 100 | 30 to 44 | 75 to 84 | 95 to 100 | 95 to 100 | 0 to 29 | 0 to 29 | 30 to 44 | 45 to 59 | 85 to 94 | 85 to 94 | 0 to 29 | 30 to 44 | 85 to 94 | 85 to 94 | 95 to 100 | 95 to 100 | 95 to 100 | 95 to 100 | pest or weed control at 70 g/ha [2, 13]: 75 to 84%; pest or weed control at 140 g/ha [2, 13]: 85 to 94%; pest or weed control at 70 g/ha [2, 14]: 95 to 100%; pest or weed control at 140 g/ha [2, 14]: 95 to 100%; pest or weed control at 70 g/ha [2, 15]: 95 to 100%; pest or weed control at 140 g/ha [2, 15]: 95 to 100%; pest or weed control at 70 g/ha [2, 16]: 95 to 100%; pest or weed control at 140 g/ha [2, 16]: 95 to 100%; pest or weed control at 70 g/ha [2, 17]: 85 to 94%; pest or weed control at 140 g/ha [2, 17]: 95 to 100%; melting point: 111 to 114 °C
